The results in this text go back to patent US20070117770A1, “Human ribosomal DNA (rDNA) and ribosomal RNA (rRNA) nucleic acids and uses thereof” (Cylene Pharmaceuticals, Inc., priority 2005, published 2007).

One assay addresses CK1γ3(h) (Homo sapiens, UniProt Q9Y6M4). In words: Protein kinase inhibition assay. It is filed as biochemical. Particulars: read-out: percent residual activity of CK1γ3(h). The procedure, abridged: (§1)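 Enzyme and substrate handling: every kinase enters as a 10× working dilution made in a buffer specific to that kinase, and substrates go in from working stocks, water-based except where a buffered stock (MOPS, Tris or HEPES, pH 7.0–7.5) is needed.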

A further assay has as its target CLK3(h) (Homo sapiens, UniProt P49761). The assay is described as follows: Protein kinase inhibition assay. It is filed as biochemical. Particulars: read-out: percent residual activity of CLK3(h). The procedure, abridged:
as §1

The target of a further assay is CaMKIIβ(h) (Homo sapiens, UniProt Q13554). The assay is described as follows: Protein kinase inhibition assay. It is filed as biochemical. The following applies: read-out: percent residual activity of CaMKIIβ(h). The procedure, abridged:
as §1

The next assay deals with DAPK1(h) (Homo sapiens, UniProt P53355). In words: Protein kinase inhibition assay. The following applies: read-out: percent residual activity of DAPK1(h). It is filed as biochemical. In a few lines: as §1
The next assay addresses LIMK1(h) (Homo sapiens, UniProt P53667). In words: Protein kinase inhibition assay. It is filed as biochemical. The following applies: read-out: percent residual activity of LIMK1(h). The procedure, abridged: as §1
In the next assay the target is MST3(h) (Homo sapiens, UniProt Q9Y6E0). In words: Protein kinase inhibition assay. Particulars: read-out: percent residual activity of MST3(h). It is filed as biochemical. In a few lines: as §1
A further assay deals with SAPK2a(T106M)(h) (Homo sapiens, UniProt Q16539, T106M). In words: Protein kinase inhibition assay. Particulars: read-out: percent residual activity of SAPK2a(T106M)(h). It is filed as biochemical. In a few lines:
as §1

The target of another assay is SRPK1(h) (Homo sapiens, UniProt Q96SB4). The assay is described as follows: Protein kinase inhibition assay. It is filed as biochemical. The following applies: read-out: percent residual activity of SRPK1(h). In a few lines:
as §1

For another assay, the target named is eEF-2K(h) (Homo sapiens, UniProt O00418). In words: Protein kinase inhibition assay. The following applies: read-out: percent residual activity of eEF-2K(h). It is filed as biochemical. In a few lines:
as §1

The next assay has as its target EphB4(h) (Homo sapiens, UniProt P54760). The assay is described as follows: Protein kinase inhibition assay. The following applies: read-out: percent residual activity of EphB4(h). Format: biochemical. The procedure:
(§2) Certain compounds were tested for activity in protein kinase inhibition assays. All substrates were dissolved and diluted to working stocks in de-ionized water, apart from histone H1 (10× working stock in 20 mM MOPS pH 7.0), PDKtide (10× working stock in 50 mM Tris pH 7.0) ATF2 (which is typically stored at a 20× working stock in 50 mM Tris pH 7.5, 150 mM NaCl, 0.1 mM EGTA, 0.03% Brij-35, 50% glycerol, 1 mM benzamidine, 0.2 mM PMSF and 0.1% R-mercaptoethanol), KKLNRTLSFAEPG (SEQ ID NO:203) and RRRLSFAEPG (SEQ ID NO:204) (50 mM HEPES pH 7.4) and GGEEEEYFELVKKKK (SEQ ID NO:205) (20 mM MOPS pH 7.0). All kinases were pre-diluted to a 10× working concentration prior to addition into the assay. The composition of the dilution buffer for each kinase is detailed below.
In a final reaction volume of 25 μl, EphB4 (h) (5-10 mU) is incubated with 8 mM MOPS pH 7.0, 0.2 mM EDTA, 10 mM MnCl2, 0.1 mg/ml poly(Glu, Tyr) 4:1, 10 mM MgAcetate and [gamma-33P-ATP] (specific activity approx. 500 cpm/pmol, concentration as required). The reaction is initiated by the addition of the MgATP mix. After incubation for 40 minutes at room temperature, the reaction is stopped by the addition of 5 μl of a 3% phosphoric acid solution. 10 μl of the reaction is then spotted onto a Filtermat A and washed three times for 5 minutes in 75 mM phosphoric acid and once in methanol prior to drying and scintillation counting.

The next assay deals with PKG1β(h) (Homo sapiens, UniProt Q13976). In words: Protein kinase inhibition assay. It is filed as biochemical. The following applies: read-out: percent residual activity of PKG1β(h). The procedure: as §2
In a final reaction volume of 25 μl, PKG1β (h) (5-10 mU) is incubated with 8 mM MOPS pH 7.0, 0.2 mM EDTA, 10 μM cGMP, 200 μM RRRLSFAEPG (SEQ ID NO:223), 10 mM MgAcetate and [gamma-33P-ATP] (specific activity approx. 500 cpm/pmol, concentration as required). The reaction is initiated by the addition of the MgATP mix. After incubation for 40 minutes at room temperature, the reaction is stopped by the addition of 5 μl of a 3% phosphoric acid solution. […]

A further assay relates to cells. In words: Apoptosis by Annexin V binding (FACS). It is filed as cell-based. The procedure: Apoptosis was assessed by Annexin V binding in flow cytometry fluorescence activated cell sorting (FACS) assays. In such assays, cells were harvested and washed twice in PBS (4° C.) and resuspended at a concentration of 1×10^6 cells/ml in Binding Buffer (10× solution contains 0.1M HEPES/NaOH, pH7.4; […]; 25 mM CaCl2; PharMingen, 66121A). Cells were aliquotted (100 ul) into FACS tubes with Annexin V and/or viability dye. The tube contents were mixed gently and incubated for 15 minutes at room temperature in the dark. Binding Buffer (400 ul) was added to each tube and analyzed immediately by flow cytometry.
Annexin V is available in biotin, FITC (Annexin-V-FITC; PharMingen, 65874X) and PE (Annexin-PE; PharMingen, 65875X) formats. When using Annexin-V-FITC, Propidium Iodide (PI; Sigma, P 4170) was used as the viability marker (5 ul of a 50 ug/ml stock solution). When using Annexin-V-PE, 7-AminoActinomycin D (7-AAD; Sigma, A 9400) was the preferred viability marker (1 ug/ml final concentration) as there is less spectral overlap of PE and 7-AAD than PE and PI. While 7-AAD is not as bright as PI, FITC, PE and PI can be combined effectively. Tubes contained (i) cells alone, (ii) cells+Annexin, (iii) cells+PI (or 7-AAD) or (iv) cells+Annexin+PI (or 7-AAD) in some assays.

SRPK1(h), sequence (Q96SB4 whole entry): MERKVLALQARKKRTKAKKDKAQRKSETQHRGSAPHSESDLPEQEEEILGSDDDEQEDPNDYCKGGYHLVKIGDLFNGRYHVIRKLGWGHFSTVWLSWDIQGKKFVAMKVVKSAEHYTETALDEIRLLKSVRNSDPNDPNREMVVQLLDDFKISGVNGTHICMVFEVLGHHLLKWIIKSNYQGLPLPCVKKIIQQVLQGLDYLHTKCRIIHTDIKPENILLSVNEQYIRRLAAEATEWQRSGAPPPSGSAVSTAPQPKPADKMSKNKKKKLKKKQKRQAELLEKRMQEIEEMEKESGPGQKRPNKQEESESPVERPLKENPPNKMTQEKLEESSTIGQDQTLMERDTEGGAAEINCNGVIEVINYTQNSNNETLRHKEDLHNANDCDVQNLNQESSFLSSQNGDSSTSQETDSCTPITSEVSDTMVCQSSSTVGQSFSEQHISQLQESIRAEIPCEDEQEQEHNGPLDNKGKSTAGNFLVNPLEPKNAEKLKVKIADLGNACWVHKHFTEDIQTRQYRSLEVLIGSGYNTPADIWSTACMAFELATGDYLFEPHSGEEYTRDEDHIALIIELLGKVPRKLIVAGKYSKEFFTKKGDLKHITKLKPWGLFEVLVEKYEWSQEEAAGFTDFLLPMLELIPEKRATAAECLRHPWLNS
LIMK1(h), sequence (P53667 whole entry): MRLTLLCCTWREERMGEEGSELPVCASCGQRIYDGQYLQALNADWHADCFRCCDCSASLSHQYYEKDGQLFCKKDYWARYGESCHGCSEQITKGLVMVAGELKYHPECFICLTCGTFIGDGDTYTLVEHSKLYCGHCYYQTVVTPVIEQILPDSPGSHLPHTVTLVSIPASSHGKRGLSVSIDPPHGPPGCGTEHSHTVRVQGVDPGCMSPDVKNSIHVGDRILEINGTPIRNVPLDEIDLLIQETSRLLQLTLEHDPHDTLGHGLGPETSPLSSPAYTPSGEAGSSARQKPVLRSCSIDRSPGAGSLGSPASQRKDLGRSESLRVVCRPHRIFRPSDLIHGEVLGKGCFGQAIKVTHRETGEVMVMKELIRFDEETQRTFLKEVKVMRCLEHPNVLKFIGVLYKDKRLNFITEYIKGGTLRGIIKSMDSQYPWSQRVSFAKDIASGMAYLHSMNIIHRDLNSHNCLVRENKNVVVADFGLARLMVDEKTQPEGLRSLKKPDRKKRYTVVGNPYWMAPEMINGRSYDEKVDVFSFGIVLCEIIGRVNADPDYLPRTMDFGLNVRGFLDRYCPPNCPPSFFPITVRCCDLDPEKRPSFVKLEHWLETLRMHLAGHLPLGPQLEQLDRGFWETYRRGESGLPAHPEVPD
EphB4(h), sequence (P54760 16-987): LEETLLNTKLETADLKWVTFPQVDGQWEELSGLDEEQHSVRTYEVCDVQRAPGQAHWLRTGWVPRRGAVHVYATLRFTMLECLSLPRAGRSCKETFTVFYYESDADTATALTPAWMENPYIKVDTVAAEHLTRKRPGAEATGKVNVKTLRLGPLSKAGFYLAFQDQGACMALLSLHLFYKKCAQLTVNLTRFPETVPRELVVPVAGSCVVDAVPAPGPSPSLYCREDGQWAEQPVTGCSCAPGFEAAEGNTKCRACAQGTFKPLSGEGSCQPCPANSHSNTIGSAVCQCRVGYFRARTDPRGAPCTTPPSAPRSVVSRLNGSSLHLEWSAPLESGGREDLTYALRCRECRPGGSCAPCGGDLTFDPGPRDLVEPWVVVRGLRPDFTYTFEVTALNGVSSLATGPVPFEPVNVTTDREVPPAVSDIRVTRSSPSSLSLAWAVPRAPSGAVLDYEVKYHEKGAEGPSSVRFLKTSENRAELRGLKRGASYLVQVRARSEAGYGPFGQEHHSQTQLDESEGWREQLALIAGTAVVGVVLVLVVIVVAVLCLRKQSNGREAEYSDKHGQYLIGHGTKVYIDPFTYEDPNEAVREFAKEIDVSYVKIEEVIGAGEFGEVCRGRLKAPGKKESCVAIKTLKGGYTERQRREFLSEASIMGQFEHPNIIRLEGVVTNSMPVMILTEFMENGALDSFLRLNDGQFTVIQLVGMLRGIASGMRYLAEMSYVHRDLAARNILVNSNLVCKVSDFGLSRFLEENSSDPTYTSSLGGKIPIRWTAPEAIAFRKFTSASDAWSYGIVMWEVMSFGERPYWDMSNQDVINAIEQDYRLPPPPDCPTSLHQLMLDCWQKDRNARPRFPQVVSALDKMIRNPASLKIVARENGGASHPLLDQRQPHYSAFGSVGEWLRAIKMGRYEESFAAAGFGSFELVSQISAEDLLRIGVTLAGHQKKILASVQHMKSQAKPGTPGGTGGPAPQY
CLK3(h), sequence (P49761 whole entry): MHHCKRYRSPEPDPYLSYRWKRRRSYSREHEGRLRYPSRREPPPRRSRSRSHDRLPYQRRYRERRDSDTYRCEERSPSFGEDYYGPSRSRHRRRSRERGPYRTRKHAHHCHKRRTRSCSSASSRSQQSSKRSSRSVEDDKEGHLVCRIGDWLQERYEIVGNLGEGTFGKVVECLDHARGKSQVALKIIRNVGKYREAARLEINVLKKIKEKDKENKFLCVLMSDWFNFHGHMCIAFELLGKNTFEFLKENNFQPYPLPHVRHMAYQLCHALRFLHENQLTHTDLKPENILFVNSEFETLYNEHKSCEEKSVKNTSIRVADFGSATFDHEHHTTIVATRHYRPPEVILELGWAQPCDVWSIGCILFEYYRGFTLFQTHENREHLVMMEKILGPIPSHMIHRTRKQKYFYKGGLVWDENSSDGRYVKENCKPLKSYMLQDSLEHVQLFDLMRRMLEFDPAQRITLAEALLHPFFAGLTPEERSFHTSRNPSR
SAPK2a(T106M)(h), sequence (Q16539 whole entry T106M): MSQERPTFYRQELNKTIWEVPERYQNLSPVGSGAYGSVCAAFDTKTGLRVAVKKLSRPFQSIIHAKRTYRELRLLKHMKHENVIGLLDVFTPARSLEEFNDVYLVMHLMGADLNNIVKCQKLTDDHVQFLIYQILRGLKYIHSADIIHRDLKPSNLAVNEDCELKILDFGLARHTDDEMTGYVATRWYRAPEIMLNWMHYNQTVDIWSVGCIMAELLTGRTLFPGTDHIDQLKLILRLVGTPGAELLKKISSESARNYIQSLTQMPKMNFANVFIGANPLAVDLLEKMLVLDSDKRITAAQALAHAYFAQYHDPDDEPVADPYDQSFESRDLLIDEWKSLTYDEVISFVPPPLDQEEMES
PKG1β(h), sequence (Q13976 1-686 isoform Q13976-2): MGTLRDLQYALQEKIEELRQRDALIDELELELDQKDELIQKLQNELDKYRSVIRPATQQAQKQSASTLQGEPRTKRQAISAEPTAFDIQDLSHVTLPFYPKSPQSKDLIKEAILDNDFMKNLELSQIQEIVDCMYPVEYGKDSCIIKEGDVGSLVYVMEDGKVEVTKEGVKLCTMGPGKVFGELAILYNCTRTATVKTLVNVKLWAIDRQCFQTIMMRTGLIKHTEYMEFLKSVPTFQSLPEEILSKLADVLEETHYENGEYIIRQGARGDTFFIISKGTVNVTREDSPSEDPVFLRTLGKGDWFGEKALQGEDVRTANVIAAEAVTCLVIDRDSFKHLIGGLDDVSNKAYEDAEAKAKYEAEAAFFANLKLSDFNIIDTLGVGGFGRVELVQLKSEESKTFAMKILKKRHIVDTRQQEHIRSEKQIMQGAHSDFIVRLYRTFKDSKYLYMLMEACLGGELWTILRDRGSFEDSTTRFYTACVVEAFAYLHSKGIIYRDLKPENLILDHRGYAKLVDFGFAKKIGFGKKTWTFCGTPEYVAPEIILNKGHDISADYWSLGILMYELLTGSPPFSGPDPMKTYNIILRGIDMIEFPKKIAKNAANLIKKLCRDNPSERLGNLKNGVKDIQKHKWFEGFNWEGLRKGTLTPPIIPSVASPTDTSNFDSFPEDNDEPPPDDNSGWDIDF
CK1γ3(h), sequence (Q9Y6M4 whole entry): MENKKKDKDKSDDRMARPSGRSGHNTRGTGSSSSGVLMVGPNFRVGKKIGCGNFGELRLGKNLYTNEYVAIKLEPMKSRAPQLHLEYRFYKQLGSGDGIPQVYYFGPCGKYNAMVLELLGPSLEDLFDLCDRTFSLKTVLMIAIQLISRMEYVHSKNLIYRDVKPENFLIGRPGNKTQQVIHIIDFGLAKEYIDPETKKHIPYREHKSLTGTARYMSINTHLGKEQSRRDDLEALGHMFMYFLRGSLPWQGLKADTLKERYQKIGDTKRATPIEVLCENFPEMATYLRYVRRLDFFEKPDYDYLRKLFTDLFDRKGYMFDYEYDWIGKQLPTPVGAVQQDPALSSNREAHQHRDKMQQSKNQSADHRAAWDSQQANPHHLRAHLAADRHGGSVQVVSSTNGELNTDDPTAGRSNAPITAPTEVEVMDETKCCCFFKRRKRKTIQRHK
MST3(h), sequence (Q9Y6E0 whole entry): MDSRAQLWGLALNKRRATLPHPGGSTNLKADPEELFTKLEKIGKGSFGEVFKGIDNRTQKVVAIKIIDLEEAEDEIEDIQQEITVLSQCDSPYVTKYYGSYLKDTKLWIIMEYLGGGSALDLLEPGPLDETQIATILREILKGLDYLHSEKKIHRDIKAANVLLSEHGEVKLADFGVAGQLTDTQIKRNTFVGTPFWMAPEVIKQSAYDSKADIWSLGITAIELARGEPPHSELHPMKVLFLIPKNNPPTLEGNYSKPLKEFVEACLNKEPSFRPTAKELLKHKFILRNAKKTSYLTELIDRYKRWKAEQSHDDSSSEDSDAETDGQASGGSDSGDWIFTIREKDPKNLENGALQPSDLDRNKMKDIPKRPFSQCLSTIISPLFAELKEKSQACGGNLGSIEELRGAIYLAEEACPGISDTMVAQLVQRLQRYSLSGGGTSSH

Consider `CN1CCCC1CCNC(=O)c1cn2c3c(c(N4CCC(c5cnccn5)C4)c(F)cc3c1=O)Oc1cc3ccccc3cc1-2` (stereo not drawn) [Compound A-1], for which the remaining activity at 2.5 µM at CK1γ3(h) was determined as 103%; on CLK3(h), 84%; on CaMKIIβ(h) it was 101%; on DAPK1(h), 40%; on LIMK1(h) it was 97%; at MST3(h) it was 45%. Besides, the remaining activity at 2.5 µM on SAPK2a(T106M)(h) worked out at 94%; on SRPK1(h), 91%; at eEF-2K(h) it was 96%; on EphB4(h), 96%; on PKG1β(h), 48%. The induction of apoptosis entry in the assay with cells is reported as “induced apoptosis”.

Regarding `CC(=O)N1CCN(c2ccc3c(=O)c(C(=O)NCCN4CCCC4)c4n(C)c5ccccc5n4c3n2)CC1` [Compound B-1], the remaining activity at 2.5 µM is 114% on CK1γ3(h); 96% at CLK3(h); 100% on CaMKIIβ(h); 89% at DAPK1(h); 100% on LIMK1(h); 110% at MST3(h). Moreover, the remaining activity at 2.5 µM at SAPK2a(T106M)(h) was determined as 99%; on SRPK1(h) it was 99%; at eEF-2K(h), 98%; at EphB4(h), 108%; at PKG1β(h), 107%. Moreover, the induction of apoptosis result in the assay with cells was “induced apoptosis following an efficient arrest of cell cycle progression”.
